Where a SMILES comes first, the peptide text is derived from it. [ ]: non-standard residue; d: D form. Tle = CC(C)(C)[C@H](N)C(=O)O; dDab = NCC[C@@H](N)C(=O)O; Orn = NCCC[C@H](N)C(=O)O; Dab = NCC[C@H](N)C(=O)O; Dap = NC[C@H](N)C(=O)O
Assays:
Type in all cases: cell-based
[1] = system: human red blood cells (hRBC); assay: Hemolysis of human red blood cells; conditions: red cells of human, 1 h, 100
Method: Stock solutions were kept at +4° C., light protected.
Percent hemolysis was calculated as follows: (OD540peptide/OD540H2O)×100%.

[2] = system: Escherichia coli ATCC 25922; conditions: ATCC 25922
In short: (§1)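 Peptide MICs were determined by NCCLS broth microdilution in cation-adjusted Mueller-Hinton II broth. Inoculum was about 10^6 CFU/mL, matched to 0.5 McFarland, with peptides in two-fold serial dilutions. The broth contained Polysorbate 80 at 0.002% final concentration.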

[3] = system: Acinetobacter baumannii DSM 30008; conditions: DSM 30008
In short: as §1

[4] = system: Klebsiella pneumoniae ATCC 13883; conditions: ATCC 13883
In short: as §1

SMILES: C[C@@H]1NC(=O)[C@H](C(C)(C)C)NC(=O)[C@H](CCN)NC(=O)[C@H](Cc2c[nH]c3ccccc23)NC(=O)[C@H](CCN)NC(=O)[C@@H](CCN)NC(=O)[C@H](CCCN)NC(=O)[C@H](CCN)NC(=O)[C@H](Cc2ccc(O)cc2)NC(=O)[C@H](CN)NC(=O)[C@H](Cc2ccccc2)NC(=O)[C@H](Cc2ccccc2)NC(=O)[C@H]2CCCN2C(=O)[C@H](CO)NC1=O [Example 43, cyclo(-Phe-Dap-Tyr-Dab-Orn-^DDab-Dab-Trp-Dab-tBuGly-Ala-Ser-^DPro-Phe-)] (cyclo(AS[dP]FF[Dap]Y[Dab][Orn][dDab][Dab]W[Dab][Tle]))
- Hemolysis at 100 μg/mL [1]: 1%
- Escherichia coli ATCC 25922 MIC [2]: 1 µg/mL
- Acinetobacter baumannii DSM 30008 MIC [3]: 1 µg/mL
- Klebsiella pneumoniae ATCC 13883 MIC [4]: 0.25 µg/mL

SMILES: CC(C)C[C@@H]1NC(=O)[C@@H]2CCCN2C(=O)[C@H]2CCCN2C(=O)[C@H](CO)NC(=O)[C@@H]2CCNC(=O)C[C@H](NC1=O)C(=O)N[C@@H](Cc1ccc(O)cc1)C(=O)N[C@@H](CCN)C(=O)N[C@@H](CCCN)C(=O)N[C@H](CCN)C(=O)N[C@@H](CCN)C(=O)N[C@@H](Cc1c[nH]c3ccccc13)C(=O)N[C@@H](CCN)C(=O)N[C@@H](C(C)(C)C)C(=O)N2 [Example 22, cyclo(-Leu-Asp-Tyr-Dab-Orn-^DDab-Dab-Trp-Dab-tBuGly-Dab-Ser-^DPro-Pro-)] (HELM PEPTIDE1{L.D.Y.[Dab].[Orn].[NCC[C@@H](N[*:1])C(=O)[*:2]].[Dab].W.[Dab].[CC(C)(C)[C@H](N[*:1])C(=O)[*:2]].[Dab].S.[dP].P}$PEPTIDE1,PEPTIDE1,2:R3-11:R3|PEPTIDE1,PEPTIDE1,1:R1-14:R2$$$V2.0)
- Hemolysis at 100 μg/mL [1]: 1.5%
- Escherichia coli ATCC 25922 MIC [2]: 0.5 µg/mL
- Acinetobacter baumannii DSM 30008 MIC [3]: 1 µg/mL
- Klebsiella pneumoniae ATCC 13883 MIC [4]: 0.5 µg/mL

SMILES: CC(C)C[C@@H]1NC(=O)[C@@H]2CCCN2C(=O)[C@H]2CCCN2C(=O)[C@H](CO)NC(=O)[C@@H]2CCCCNC(=O)C[C@H](NC1=O)C(=O)N[C@@H](Cc1ccc(O)cc1)C(=O)N[C@@H](CCN)C(=O)N[C@@H](CCCN)C(=O)N[C@@H](CCN)C(=O)N[C@@H](CCN)C(=O)N[C@@H](Cc1c[nH]c3ccccc13)C(=O)N[C@@H](CCN)C(=O)N[C@@H](C(C)(C)C)C(=O)N2 [Example 25, cyclo(-Leu-Asp-Tyr-Dab-Orn-Dab-Dab-Trp-Dab-tBuGly-Lys-Ser-^DPro-Pro-)] (HELM PEPTIDE1{L.D.Y.[Dab].[Orn].[Dab].[Dab].W.[Dab].[CC(C)(C)[C@H](N[*:1])C(=O)[*:2]].K.S.[dP].P}$PEPTIDE1,PEPTIDE1,2:R3-11:R3|PEPTIDE1,PEPTIDE1,1:R1-14:R2$$$V2.0)
- Hemolysis at 100 μg/mL [1]: 0%
- Escherichia coli ATCC 25922 MIC [2]: 1 µg/mL
- Acinetobacter baumannii DSM 30008 MIC [3]: 2 µg/mL
- Klebsiella pneumoniae ATCC 13883 MIC [4]: 1 µg/mL
